Test results taken from ChEMBL document CHEMBL3784957, “Patterns of biofilm structure and formation kinetics among Acinetobacter baumannii clinical isolates with different antibiotic resistance profiles” (2016).
Values after ≈ are worked out from the molar mass of the structure shown.

test system: Acinetobacter baumannii; experiment: Antimicrobial activity against Acinetobacter baumannii isolate 3 by broth microdilution assay; assay type: functional

MIC [mg/L] | SMILES
> 64 | CCN1CCN(C(=O)N[C@@H](C(=O)N[C@@H]2C(=O)N3[C@@H]2SC(C)(C)[C@@H]3C(=O)O)c2ccccc2)C(=O)C1=O [PIPERACILLIN]
> 2 | O=C(O)c1cn(C2CC2)c2cc(N3CCNCC3)c(F)cc2c1=O [CIPROFLOXACIN]

SMILES | MIC [mg/L]
NC[C@H]1O[C@H](O[C@H]2[C@H](O)[C@@H](O[C@H]3O[C@H](CO)[C@@H](O)[C@H](N)[C@H]3O)[C@H](N)C[C@@H]2N)[C@H](N)C[C@@H]1O [TOBRAMYCIN] | ≤ 1

test system: Acinetobacter baumannii; experiment: Antimicrobial activity against Acinetobacter baumannii isolate 9 by broth microdilution assay; assay type: functional

MIC [mg/L] | SMILES
> 64 | CCN1CCN(C(=O)N[C@@H](C(=O)N[C@@H]2C(=O)N3[C@@H]2SC(C)(C)[C@@H]3C(=O)O)c2ccccc2)C(=O)C1=O [PIPERACILLIN]
> 2 | O=C(O)c1cn(C2CC2)c2cc(N3CCNCC3)c(F)cc2c1=O [CIPROFLOXACIN]

SMILES | MIC [mg/L]
NC[C@H]1O[C@H](O[C@H]2[C@H](O)[C@@H](O[C@H]3O[C@H](CO)[C@@H](O)[C@H](N)[C@H]3O)[C@H](N)C[C@@H]2N)[C@H](N)C[C@@H]1O [TOBRAMYCIN] | > 8

test system: Acinetobacter baumannii; experiment: Antimicrobial activity against Acinetobacter baumannii isolate 12 by broth microdilution assay; assay type: functional

MIC [mg/L] | SMILES
> 64 | CCN1CCN(C(=O)N[C@@H](C(=O)N[C@@H]2C(=O)N3[C@@H]2SC(C)(C)[C@@H]3C(=O)O)c2ccccc2)C(=O)C1=O [PIPERACILLIN]
> 2 | O=C(O)c1cn(C2CC2)c2cc(N3CCNCC3)c(F)cc2c1=O [CIPROFLOXACIN]

SMILES | MIC [mg/L]
NC[C@H]1O[C@H](O[C@H]2[C@H](O)[C@@H](O[C@H]3O[C@H](CO)[C@@H](O)[C@H](N)[C@H]3O)[C@H](N)C[C@@H]2N)[C@H](N)C[C@@H]1O [TOBRAMYCIN] | > 8

test system: Acinetobacter baumannii; experiment: Antimicrobial activity against Acinetobacter baumannii isolate 15 by broth microdilution assay; assay type: functional

MIC [mg/L] | SMILES
> 64 | CCN1CCN(C(=O)N[C@@H](C(=O)N[C@@H]2C(=O)N3[C@@H]2SC(C)(C)[C@@H]3C(=O)O)c2ccccc2)C(=O)C1=O [PIPERACILLIN]
> 2 | O=C(O)c1cn(C2CC2)c2cc(N3CCNCC3)c(F)cc2c1=O [CIPROFLOXACIN]

SMILES | MIC [mg/L]
NC[C@H]1O[C@H](O[C@H]2[C@H](O)[C@@H](O[C@H]3O[C@H](CO)[C@@H](O)[C@H](N)[C@H]3O)[C@H](N)C[C@@H]2N)[C@H](N)C[C@@H]1O [TOBRAMYCIN] | > 8

test system: Acinetobacter baumannii; experiment: Antimicrobial activity against Acinetobacter baumannii isolate 20 by broth microdilution assay; assay type: functional

MIC [mg/L] | SMILES
> 64 | CCN1CCN(C(=O)N[C@@H](C(=O)N[C@@H]2C(=O)N3[C@@H]2SC(C)(C)[C@@H]3C(=O)O)c2ccccc2)C(=O)C1=O [PIPERACILLIN]
> 2 | O=C(O)c1cn(C2CC2)c2cc(N3CCNCC3)c(F)cc2c1=O [CIPROFLOXACIN]

SMILES | MIC [mg/L]
NC[C@H]1O[C@H](O[C@H]2[C@H](O)[C@@H](O[C@H]3O[C@H](CO)[C@@H](O)[C@H](N)[C@H]3O)[C@H](N)C[C@@H]2N)[C@H](N)C[C@@H]1O [TOBRAMYCIN] | > 8

test system: Acinetobacter baumannii; experiment: Antimicrobial activity against Acinetobacter baumannii isolate 26 by broth microdilution assay; assay type: functional

MIC [mg/L] | SMILES
> 64 | CCN1CCN(C(=O)N[C@@H](C(=O)N[C@@H]2C(=O)N3[C@@H]2SC(C)(C)[C@@H]3C(=O)O)c2ccccc2)C(=O)C1=O [PIPERACILLIN]
> 2 | O=C(O)c1cn(C2CC2)c2cc(N3CCNCC3)c(F)cc2c1=O [CIPROFLOXACIN]

SMILES | MIC [mg/L]
NC[C@H]1O[C@H](O[C@H]2[C@H](O)[C@@H](O[C@H]3O[C@H](CO)[C@@H](O)[C@H](N)[C@H]3O)[C@H](N)C[C@@H]2N)[C@H](N)C[C@@H]1O [TOBRAMYCIN] | ≤ 1

test system: Acinetobacter baumannii; experiment: Antimicrobial activity against Acinetobacter baumannii isolate 30 by broth microdilution assay; assay type: functional

MIC [mg/L] | SMILES
> 64 | CCN1CCN(C(=O)N[C@@H](C(=O)N[C@@H]2C(=O)N3[C@@H]2SC(C)(C)[C@@H]3C(=O)O)c2ccccc2)C(=O)C1=O [PIPERACILLIN]
> 2 | O=C(O)c1cn(C2CC2)c2cc(N3CCNCC3)c(F)cc2c1=O [CIPROFLOXACIN]

SMILES | MIC [mg/L]
NC[C@H]1O[C@H](O[C@H]2[C@H](O)[C@@H](O[C@H]3O[C@H](CO)[C@@H](O)[C@H](N)[C@H]3O)[C@H](N)C[C@@H]2N)[C@H](N)C[C@@H]1O [TOBRAMYCIN] | 8 (≈ 17.1 µM)

test system: Acinetobacter baumannii; experiment: Antimicrobial activity against Acinetobacter baumannii isolate 35 by broth microdilution assay; assay type: functional

MIC [mg/L] | SMILES
> 64 | CCN1CCN(C(=O)N[C@@H](C(=O)N[C@@H]2C(=O)N3[C@@H]2SC(C)(C)[C@@H]3C(=O)O)c2ccccc2)C(=O)C1=O [PIPERACILLIN]
> 2 | O=C(O)c1cn(C2CC2)c2cc(N3CCNCC3)c(F)cc2c1=O [CIPROFLOXACIN]

SMILES | MIC [mg/L]
NC[C@H]1O[C@H](O[C@H]2[C@H](O)[C@@H](O[C@H]3O[C@H](CO)[C@@H](O)[C@H](N)[C@H]3O)[C@H](N)C[C@@H]2N)[C@H](N)C[C@@H]1O [TOBRAMYCIN] | > 8

test system: Acinetobacter baumannii; experiment: Antimicrobial activity against Acinetobacter baumannii isolate 38 by broth microdilution assay; assay type: functional

MIC [mg/L] | SMILES
≤ 8 | CCN1CCN(C(=O)N[C@@H](C(=O)N[C@@H]2C(=O)N3[C@@H]2SC(C)(C)[C@@H]3C(=O)O)c2ccccc2)C(=O)C1=O [PIPERACILLIN]
≤ 0.25 | O=C(O)c1cn(C2CC2)c2cc(N3CCNCC3)c(F)cc2c1=O [CIPROFLOXACIN]

SMILES | MIC [mg/L]
NC[C@H]1O[C@H](O[C@H]2[C@H](O)[C@@H](O[C@H]3O[C@H](CO)[C@@H](O)[C@H](N)[C@H]3O)[C@H](N)C[C@@H]2N)[C@H](N)C[C@@H]1O [TOBRAMYCIN] | > 8

test system: Acinetobacter baumannii; experiment: Antimicrobial activity against Acinetobacter baumannii isolate 45 by broth microdilution assay; assay type: functional

MIC [mg/L] | SMILES
> 64 | CCN1CCN(C(=O)N[C@@H](C(=O)N[C@@H]2C(=O)N3[C@@H]2SC(C)(C)[C@@H]3C(=O)O)c2ccccc2)C(=O)C1=O [PIPERACILLIN]
> 2 | O=C(O)c1cn(C2CC2)c2cc(N3CCNCC3)c(F)cc2c1=O [CIPROFLOXACIN]

SMILES | MIC [mg/L]
NC[C@H]1O[C@H](O[C@H]2[C@H](O)[C@@H](O[C@H]3O[C@H](CO)[C@@H](O)[C@H](N)[C@H]3O)[C@H](N)C[C@@H]2N)[C@H](N)C[C@@H]1O [TOBRAMYCIN] | 8 (≈ 17.1 µM)

test system: Acinetobacter baumannii; experiment: Antimicrobial activity against Acinetobacter baumannii isolate 52 by broth microdilution assay; assay type: functional

MIC [mg/L] | SMILES
> 64 | CCN1CCN(C(=O)N[C@@H](C(=O)N[C@@H]2C(=O)N3[C@@H]2SC(C)(C)[C@@H]3C(=O)O)c2ccccc2)C(=O)C1=O [PIPERACILLIN]
> 2 | O=C(O)c1cn(C2CC2)c2cc(N3CCNCC3)c(F)cc2c1=O [CIPROFLOXACIN]

SMILES | MIC [mg/L]
NC[C@H]1O[C@H](O[C@H]2[C@H](O)[C@@H](O[C@H]3O[C@H](CO)[C@@H](O)[C@H](N)[C@H]3O)[C@H](N)C[C@@H]2N)[C@H](N)C[C@@H]1O [TOBRAMYCIN] | ≤ 1

test system: Acinetobacter baumannii; experiment: Antimicrobial activity against Acinetobacter baumannii isolate 59 by broth microdilution assay; assay type: functional

MIC [mg/L] | SMILES
≤ 8 | CCN1CCN(C(=O)N[C@@H](C(=O)N[C@@H]2C(=O)N3[C@@H]2SC(C)(C)[C@@H]3C(=O)O)c2ccccc2)C(=O)C1=O [PIPERACILLIN]
≤ 0.25 | O=C(O)c1cn(C2CC2)c2cc(N3CCNCC3)c(F)cc2c1=O [CIPROFLOXACIN]

SMILES | MIC [mg/L]
NC[C@H]1O[C@H](O[C@H]2[C@H](O)[C@@H](O[C@H]3O[C@H](CO)[C@@H](O)[C@H](N)[C@H]3O)[C@H](N)C[C@@H]2N)[C@H](N)C[C@@H]1O [TOBRAMYCIN] | ≤ 1
